Results as given in patent publication US11358950B2, “SMAC mimetics used as IAP inhibitors and use thereof” (CHIA TAI TIANQING PHARMACEUTICAL GROUP CO., LTD., priority 2017, dated 2022).

Key:
cIAP1 BIR3 = molecular target: T1, cIAP1 BIR3 (Homo sapiens, UniProt Q13490); assay: Binding experiment of cIAP1 BIR3 (fluorescence polarization); conditions: 20 nM cIAP1 BIR3, 5 nM probe ARPFAQ-K(5-FAM)-NH2, 60 min
T1 construct: covering amino acids 258 to 363; GST; His; purchased RBC APT-11-370; host or cells: E. coli
T1 sequence (Q13490 258-363): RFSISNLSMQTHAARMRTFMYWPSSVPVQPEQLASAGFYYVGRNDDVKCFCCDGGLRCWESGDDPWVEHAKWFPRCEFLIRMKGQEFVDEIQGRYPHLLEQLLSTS
Procedure: (§1) Buffer system for the test (a buffer for cIAP1 BIR3 or XIAP BIR3): 100 mM potassium phosphate, pH 7.5; 0.1% BSA; 0.005% Triton X-100; and 1% dimethyl sulfoxide.
(§2) Probe: ARPFAQ-K(5-FAM)-NH2.
cIAP1-BIR3-his: RBC Cat #APT-11-370, the BIR3 domain of human cIAP1 (covering amino acids 258 to 363; cIAP1 BIR3), as a GST-fusion protein expressed and purified from E. coli.
(§3) Reaction conditions: 5 nM ARPFAQ-K(5-FAM)-NH2, 20 nM cIAP1 BIR3 and 30 nM XIAP BIR3.
(§4) First, a fresh buffer for cIAP1 BIR3 or XIAP BIR3 was prepared, a cIAP1 BIR3 or XIAP BIR3 solution (2-fold diluted) was added thereto, and then a compound to be tested which had been dissolved in 100% DMSO was added into the buffer solution containing cIAP1 BIR3 or XIAP BIR3 by an acoustic technique. Thereafter, the probe (2-fold diluted) was added, and the resultant was mixed and incubated in the dark at room temperature for 60 minutes. The fluorescence polarization was measured and the mP value was calculated. Finally, the IC50 value was obtained.

XIAP BIR3 = molecular target: T2, XIAP BIR3 (Homo sapiens, UniProt P98170); assay: Binding experiment of XIAP BIR3 (fluorescence polarization); conditions: 30 nM XIAP BIR3, 5 nM probe ARPFAQ-K(5-FAM)-NH2, 60 min
T2 construct: covering amino acids 255 to 356; GST; His; purchased RBC APT-11-374; host or cells: E. coli
T2 sequence (P98170 255-356): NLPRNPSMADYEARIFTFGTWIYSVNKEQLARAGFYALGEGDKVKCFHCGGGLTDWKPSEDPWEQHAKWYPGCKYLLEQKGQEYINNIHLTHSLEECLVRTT
Procedure: as §1, §2
XIAP-BIR3-his: RBC Cat #APT-11-374, the BIR3 domain of XIAP (covering amino acids 255 to 356; XIAP BIR3), as a GST-fusion protein expressed and purified from E. coli.
as §3, §4

MDA-MB-231 cells = assay: In-vitro cell viability test (CellTiter-Glo, 7 days); format: cell-based; conditions: Homo sapiens, 168 h, 7 days incubation
Procedure: RPMI 1640 medium (Invitrogen-22400089); fetal bovine serum (Invitrogen-10099141); Trypsin, 0.05% (1×) with EDTA 4Na (Invitrogen-25300062); luminescent cell viability assay kit (Promega-G7573); Dulbecco's phosphate buffered saline (HyClone-SH30028.01B); and 384-well plate (Corning-6007680). Envision Multi-label Analyzer.
1. 30 μL of MDA-MB-231 cell suspension, which contained 250 MDA-MB-231 cells, was added into the wells of a 384-microwell plate.
2. 20 μL of a test compound (the test compounds were formulated at a high concentration of 10 μM, the test compounds were subjected to a 5-fold gradient dilution, and each compound was diluted to 10 concentration gradients) was added, and then the cell plate was put back into a carbon dioxide incubator to be incubated for 7 days.
3. The cell plate was kept flat at room temperature for 30 minutes.
4. 20 μL of a Promega CellTiter-Glo reagent was added into each well of the cell plate.
5. After 10 minutes, the Envision Multi-label Analyzer was used for data reading.

| Structure (SMILES) | IC50 (cIAP1 BIR3) | IC50 (XIAP BIR3) | IC50 (MDA-MB-231 cells) |
| --- | --- | --- | --- |
| CN[C@@H](C)C(=O)N[C@H](C(=O)N1CCC[C@H]1Cn1cc(N2CCN(C)C2=O)c2cc(Cl)ccc21)C1CCCCC1 [Example 29] | 6.1 nM | 31.4 nM | 134 nM |
| CN[C@@H](C)C(=O)N[C@H](C(=O)N1CCC[C@H]1Cn1cc(C(C)=O)c2ccc(Cl)cc21)C1CCCCC1 [Example 5] | 2.6 nM | 95.9 nM | 75 nM |
| CN[C@@H](C)C(=O)N[C@H](C(=O)N1CCC[C@H]1Cn1cc(C(C)=O)c2cc(Cl)c(Cl)cc21)C1CCCCC1 [Example 8] | 5.6 nM | 40.3 nM | 75 nM |
| CN[C@@H](C)C(=O)N[C@H](C(=O)N1CCC[C@H]1Cn1cc(C(C)=O)c2cccc(Cl)c21)C1CCCCC1 [Example 6] | 58.3 nM | 9.3 nM | 497 nM |
| CN[C@@H](C)C(=O)N[C@H](C(=O)N1CCC[C@H]1Cn1cc(C(C)=O)c2cc(C(F)(F)F)ccc21)C1CCCCC1 [Example 3] | 1 nM | 18.1 nM | 16 nM |
| CN[C@@H](C)C(=O)N[C@H](C(=O)N1CCC[C@H]1Cn1nc(C(C)=O)c2cc(F)ccc21)C1CCCCC1 [Example 15] | 4 nM | 258 nM | 93 nM |
| CN[C@@H](C)C(=O)N[C@H](C(=O)N1CCC[C@H]1Cn1cc(C(C)=O)c2cc(OC(F)(F)F)ccc21)C1CCCCC1 [Example 11] | 5.2 nM | 139 nM | 74.8 nM |
| CN[C@@H](C)C(=O)N[C@H](C(=O)N1CCC[C@H]1Cn1cc(C(C)=O)c2c(Cl)cccc21)C1CCCCC1 [Example 4] | 2.6 nM | 97 nM | 220 nM |
| CN[C@@H](C)C(=O)N[C@H](C(=O)N1CCC[C@H]1Cn1cc(C(C)=O)c2cc(Cl)cnc21)C1CCCCC1 [Example 16] | 8.4 nM | 346 nM | 109 nM |
| CN[C@@H](C)C(=O)N[C@H](C(=O)N1CCC[C@H]1Cn1cc(C#N)c2cc(F)ccc21)C1CCCCC1 [Example 17] | 1.9 nM | 80.7 nM | 79 nM |
| CN[C@@H](C)C(=O)N[C@H](C(=O)N1CCC[C@H]1Cn1c(C)c(C(C)=O)c2cc(Cl)ccc21)C1CCCCC1 [Example 13] | 5 nM | 30.6 nM | 44.3 nM |
| CN[C@@H](C)C(=O)N[C@H](C(=O)N1C[C@@H](Oc2ccccc2)C[C@H]1Cn1cc(C(C)=O)c2cc(F)ccc21)C1CCCCC1 [Example 31] | 3.7 nM | 49.1 nM | 1460 nM |
| CN[C@@H](C)C(=O)N[C@H](C(=O)N1CCC[C@H]1Cn1cc(C(=O)N(C)C)c2cc(Cl)ccc21)C1CCCCC1 [Example 23] | 4.6 nM | 21.3 nM | 45.2 nM |
| CN[C@@H](C)C(=O)N[C@H](C(=O)N1CCC[C@H]1Cn1cc(N2CCOC2=O)c2cc(Cl)ccc21)C1CCCCC1 [Example 30] | 4.4 nM | 21.6 nM | 47.6 nM |
| CN[C@@H](C)C(=O)N[C@H](C(=O)N1CCC[C@H]1Cn1cc(C(C)=O)c2cc(F)ccc21)C1CCCCC1 [Example 1] | 3.7 nM | 74.7 nM | 70 nM |
| CN[C@@H](C)C(=O)N[C@H](C(=O)N1CCC[C@H]1Cn1cc(C#N)c2cc(Cl)ccc21)C1CCCCC1 [Example 18] | 5.1 nM | 42.5 nM | 22.5 nM |
| CN[C@@H](C)C(=O)N[C@H](C(=O)N1CCC[C@H]1Cn1cc(-c2ccccc2C)c2cc(F)ccc21)C1CCCCC1 [Example 25] | 6.8 nM | 208 nM | 1150 nM |
| CN[C@@H](C)C(=O)N[C@H](C(=O)N1CCC[C@H]1Cn1cc(C(C)=O)c2cc(Br)ccc21)C1CCCCC1 [Example 7] | 4.9 nM | 45 nM | 16.6 nM |
| CN[C@@H](C)C(=O)N[C@H](C(=O)N1CCC[C@H]1Cn1cc(C(C)=O)c2c(F)c(Cl)ccc21)C1CCCCC1 [Example 10] | 4.5 nM | 27.2 nM | 32.4 nM |

Further lines, results first:

| IC50 (cIAP1 BIR3) | IC50 (XIAP BIR3) | IC50 (MDA-MB-231 cells) | Structure (SMILES) |
| --- | --- | --- | --- |
| 3 nM | 42 nM | 85 nM | CN[C@@H](C)C(=O)N[C@H](C(=O)N1CCC[C@H]1Cn1cc(C(N)=O)c2cc(F)ccc21)C1CCCCC1 [Example 22] |
| 4.1 nM | 19.2 nM | 73 nM | CN[C@@H](C)C(=O)N[C@H](C(=O)N1CCC[C@H]1Cn1cc(C(=O)C(C)C)c2cc(Cl)ccc21)C1CCCCC1 [Example 24] |
| 1.1 nM | 60 nM | 181 nM | CN[C@@H](C)C(=O)N[C@H](C(=O)N1CCC[C@H]1Cn1cc(-c2ccnn2C)c2cc(F)ccc21)C1CCCCC1 [Example 26] |
| 4.2 nM | 37.4 nM | 16.4 nM | CN[C@@H](C)C(=O)N[C@H](C(=O)N1CCC[C@H]1Cn1cc(S(C)(=O)=O)c2cc(Cl)ccc21)C1CCCCC1 [Example 21] |
| 4.4 nM | 46.4 nM | 282 nM | CN[C@@H](C)C(=O)N[C@H](C(=O)N1CCC[C@H]1Cn1cc(-c2ccnn2C)c2cc(Cl)ccc21)C1CCCCC1 [Example 27] |
| 4.6 nM | 129 nM | 43.1 nM | CN[C@@H](C)C(=O)N[C@H](C(=O)N1CCC[C@H]1Cn1nc(C#N)c2cc(Cl)ccc21)C1CCCCC1 [Example 19] |
| 5.2 nM | 27.3 nM | 36.7 nM | CN[C@@H](C)C(=O)N[C@H](C(=O)N1CCC[C@H]1Cn1cc(N2CCCC2=O)c2cc(Cl)ccc21)C1CCCCC1 [Example 28] |
| 1.1 nM | 53.9 nM | 75 nM | CN[C@@H](C)C(=O)N[C@H](C(=O)N1CCC[C@H]1Cn1cc(S(C)(=O)=O)c2cc(F)ccc21)C1CCCCC1 [Example 20] |
| 6.2 nM | 49.9 nM | 57.7 nM | CN[C@@H](C)C(=O)N[C@H](C(=O)N1CCC[C@H]1Cn1nc(C(C)=O)c2cc(Cl)ccc21)C1CCCCC1 [Example 14] |
| 5.7 nM | 20 nM | 26 nM | CN[C@@H](C)C(=O)N[C@H](C(=O)N1CCC[C@H]1Cn1cc(C(C)=O)c2cc(Cl)c(F)cc21)C1CCCCC1 [Example 9] |
